Measurements: ChEMBL document CHEMBL5537117, “Novel 3-hydroxypyridin-4(1H)-One derivatives as ferroptosis inhibitors with iron-chelating and reactive oxygen species scavenging activities and therapeutic effect in cisplatin-induced cytotoxicity” (Eur J Med Chem, 2024)

Tested on: not listed separately
Assay: Antioxidant activity assessed as ABTS radical scavenging activity incubated in dark for 6 mins by absorbance based microplate reader analysis
Assay type: functional
Details: not given

| IC50 | SMILES |
| --- | --- |
| 4.91 µM | Cc1cccc(/C=C/C(=O)Nn2ccc(=O)c(O)c2C)c1 |
| 5.14 µM | Cc1c(O)c(=O)ccn1NC(=O)/C=C/c1ccccc1Cl |
| 4.8 µM | Cc1c(O)c(=O)ccn1NC(=O)/C=C/c1ccccc1 |
| 5.14 µM | Oc1ccc(/C=C/c2cc(O)cc(O)c2)cc1 [RESVERATROL] |

The remaining lines, values behind:

| SMILES | IC50 |
| --- | --- |
| Cc1c(O)c(=O)ccn1NC(=O)/C=C/c1cccc(Cl)c1F | 21.8 µM |
| Cc1ccc(/C=C/C(=O)Nn2ccc(=O)c(O)c2C)cc1 | 4.79 µM |
| Cc1c(O)c(=O)ccn1NC(=O)/C=C/c1ccccc1F | 4.38 µM |

Tested on: not listed separately
Assay: Antioxidant activity assessed as trolox equivalent of ORAC radical scavenging activity at 8 uM
Assay type: functional
Details: not given

| SMILES | Activity |
| --- | --- |
| Cc1cccc(/C=C/C(=O)Nn2ccc(=O)c(O)c2C)c1 | 2.51 |
| Cc1c(O)c(=O)ccn1NC(=O)/C=C/c1cccc(Cl)c1F | 1.24 |
| Cc1ccc(/C=C/C(=O)Nn2ccc(=O)c(O)c2C)cc1 | 2.89 |
| Cc1c(O)c(=O)ccn1NC(=O)/C=C/c1ccccc1F | 24.9 |
| Cc1c(O)c(=O)ccn1NC(=O)/C=C/c1ccccc1Cl | 6.46 |
| Cc1c(O)c(=O)ccn1NC(=O)/C=C/c1ccccc1 | 11.4 |
| Oc1ccc(/C=C/c2cc(O)cc(O)c2)cc1 [RESVERATROL] | 17.6 |

Tested on: not listed separately
Assay: Antioxidant activity assessed as trolox equivalent of ORAC radical scavenging activity at 4 uM
Assay type: functional
Details: not given

| SMILES | Activity |
| --- | --- |
| Cc1cccc(/C=C/C(=O)Nn2ccc(=O)c(O)c2C)c1 | 0.57 |
| Cc1c(O)c(=O)ccn1NC(=O)/C=C/c1cccc(Cl)c1F | < 0.1 |
| Cc1ccc(/C=C/C(=O)Nn2ccc(=O)c(O)c2C)cc1 | 0.72 |
| Cc1c(O)c(=O)ccn1NC(=O)/C=C/c1ccccc1F | 18.1 |
| Cc1c(O)c(=O)ccn1NC(=O)/C=C/c1ccccc1Cl | 2.67 |
| Cc1c(O)c(=O)ccn1NC(=O)/C=C/c1ccccc1 | 6.73 |
| Oc1ccc(/C=C/c2cc(O)cc(O)c2)cc1 [RESVERATROL] | 16.7 |

Tested on: HT-22
Assay: Cytotoxicity against mouse HT-22 cells assessed as reduction in cell viability at 150 uM by MTT assay relative to control
Assay type: toxicity, cell-based
Details: ht-22, 150 µM

| SMILES | Activity |
| --- | --- |
| Cc1c(O)c(=O)ccn1NC(=O)/C=C/c1ccccc1F | > 80% |
| Cc1c(O)c(=O)ccn1NC(=O)/C=C/c1ccccc1 | > 80% |

Tested on: HT-22
Assay: Anti-ferroptotic activity in erastin-induced ferroptosis in mouse HT-22 cells assessed as cell viability incubated for 24 hrs by MTT assay
Assay type: functional, cell-based
Details: HT-22, 24 h

| SMILES | EC50 |
| --- | --- |
| Cc1c(O)c(=O)ccn1NC(=O)/C=C/c1ccccc1F | 25.8 µM |
| Cc1c(O)c(=O)ccn1NC(=O)/C=C/c1ccccc1 | 72 µM |

Tested on: not listed separately
Assay: Acid dissociation constant, pKa1 of the compound in 0.1M KCl at pH 2.0 to 10.5 by UV absorption method
Assay type: physicochemical
Details: not given

| pKa | SMILES |
| --- | --- |
| 1.3 | Cc1cccc(/C=C/C(=O)Nn2ccc(=O)c(O)c2C)c1 |
| 2.22 | Cc1c(O)c(=O)ccn1NC(=O)/C=C/c1ccccc1Cl |
| 2.37 | Cc1c(O)c(=O)ccn1NC(=O)/C=C/c1ccccc1 |

The remaining lines, values behind:

| SMILES | pKa |
| --- | --- |
| Cc1ccc(/C=C/C(=O)Nn2ccc(=O)c(O)c2C)cc1 | 2.25 |
| Cc1c(O)c(=O)ccn1NC(=O)/C=C/c1ccccc1F | 2.4 |

Tested on: not listed separately
Assay: Acid dissociation constant, pKa2 of the compound in 0.1M KCl at pH 2.0 to 10.5 by UV absorption method
Assay type: physicochemical
Details: not given

| pKa | SMILES |
| --- | --- |
| 7.23 | Cc1cccc(/C=C/C(=O)Nn2ccc(=O)c(O)c2C)c1 |
| 6.96 | Cc1c(O)c(=O)ccn1NC(=O)/C=C/c1ccccc1Cl |
| 7.1 | Cc1c(O)c(=O)ccn1NC(=O)/C=C/c1ccccc1 |

Further lines, the molecule ahead of its results:

| SMILES | pKa |
| --- | --- |
| Cc1ccc(/C=C/C(=O)Nn2ccc(=O)c(O)c2C)cc1 | 7.24 |
| Cc1c(O)c(=O)ccn1NC(=O)/C=C/c1ccccc1F | 6.74 |

Tested on: not listed separately
Assay: Acid dissociation constant, pKa3 of the compound in 0.1M KCl at pH 2.0 to 10.5 by UV absorption method
Assay type: physicochemical
Details: not given

| pKa | SMILES |
| --- | --- |
| 10.4 | Cc1cccc(/C=C/C(=O)Nn2ccc(=O)c(O)c2C)c1 |
| 10.2 | Cc1c(O)c(=O)ccn1NC(=O)/C=C/c1ccccc1Cl |
| 10.1 | Cc1c(O)c(=O)ccn1NC(=O)/C=C/c1ccccc1 |

Further lines, the molecule ahead of its results:

| SMILES | pKa |
| --- | --- |
| Cc1ccc(/C=C/C(=O)Nn2ccc(=O)c(O)c2C)cc1 | 10.3 |
| Cc1c(O)c(=O)ccn1NC(=O)/C=C/c1ccccc1F | 10.3 |

Tested on: not listed separately
Assay: Metal chelating activity assessed as Fe3+ chelation
Details: not given

| Activity | SMILES |
| --- | --- |
| 15.8 | Cc1cccc(/C=C/C(=O)Nn2ccc(=O)c(O)c2C)c1 |
| 17.4 | Cc1c(O)c(=O)ccn1NC(=O)/C=C/c1ccccc1Cl |
| 17.9 | Cc1c(O)c(=O)ccn1NC(=O)/C=C/c1ccccc1 |

More lines, now with the values behind:

| SMILES | Activity |
| --- | --- |
| Cc1ccc(/C=C/C(=O)Nn2ccc(=O)c(O)c2C)cc1 | 16.8 |
| Cc1c(O)c(=O)ccn1NC(=O)/C=C/c1ccccc1F | 17.6 |

Tested on: not listed separately
Assay: Log K1 of the compound in 0.1M KCl at pH 0.9 to 2.1 by UV absorption method
Assay type: physicochemical
Details: not given

| log(activity) | SMILES |
| --- | --- |
| 13.57 | Cc1cccc(/C=C/C(=O)Nn2ccc(=O)c(O)c2C)c1 |
| 14.03 | Cc1c(O)c(=O)ccn1NC(=O)/C=C/c1ccccc1Cl |
| 13.61 | Cc1c(O)c(=O)ccn1NC(=O)/C=C/c1ccccc1 |

The remaining lines, values behind:

| SMILES | log(activity) |
| --- | --- |
| Cc1ccc(/C=C/C(=O)Nn2ccc(=O)c(O)c2C)cc1 | 13.93 |
| Cc1c(O)c(=O)ccn1NC(=O)/C=C/c1ccccc1F | 14.34 |

Tested on: not listed separately
Assay: Log K2 of the compound in 0.1M KCl at pH 2.0 to 10.5 by UV absorption method
Assay type: physicochemical
Details: not given

| log(activity) | SMILES |
| --- | --- |
| 25.95 | Cc1cccc(/C=C/C(=O)Nn2ccc(=O)c(O)c2C)c1 |
| 26.11 | Cc1c(O)c(=O)ccn1NC(=O)/C=C/c1ccccc1Cl |
| 25.88 | Cc1c(O)c(=O)ccn1NC(=O)/C=C/c1ccccc1 |

The remaining lines, values behind:

| SMILES | log(activity) |
| --- | --- |
| Cc1ccc(/C=C/C(=O)Nn2ccc(=O)c(O)c2C)cc1 | 26.49 |
| Cc1c(O)c(=O)ccn1NC(=O)/C=C/c1ccccc1F | 26.41 |

Tested on: not listed separately
Assay: Log K3 of the compound in 0.1M KCl at pH 2.0 to 10.5 by UV absorption method
Assay type: physicochemical
Details: not given

| log(activity) | SMILES |
| --- | --- |
| 35.55 | Cc1cccc(/C=C/C(=O)Nn2ccc(=O)c(O)c2C)c1 |
| 35.29 | Cc1c(O)c(=O)ccn1NC(=O)/C=C/c1ccccc1Cl |
| 35.4 | Cc1c(O)c(=O)ccn1NC(=O)/C=C/c1ccccc1 |

Second part, the molecule before the results:

| SMILES | log(activity) |
| --- | --- |
| Cc1ccc(/C=C/C(=O)Nn2ccc(=O)c(O)c2C)cc1 | 34.5 |
| Cc1c(O)c(=O)ccn1NC(=O)/C=C/c1ccccc1F | 35.75 |
